Data on 3 molecules can be found in ChEMBL document CHEMBL2074553, “Characterization of bile acid transport mediated by multidrug resistance associated protein 2 and bile salt export pump” (Biochim Biophys Acta, 2001).

Data set [1] concerns the target T1, Bile salt export pump (Rattus norvegicus, UniProt O70127).
T1 sequence (O70127 whole entry): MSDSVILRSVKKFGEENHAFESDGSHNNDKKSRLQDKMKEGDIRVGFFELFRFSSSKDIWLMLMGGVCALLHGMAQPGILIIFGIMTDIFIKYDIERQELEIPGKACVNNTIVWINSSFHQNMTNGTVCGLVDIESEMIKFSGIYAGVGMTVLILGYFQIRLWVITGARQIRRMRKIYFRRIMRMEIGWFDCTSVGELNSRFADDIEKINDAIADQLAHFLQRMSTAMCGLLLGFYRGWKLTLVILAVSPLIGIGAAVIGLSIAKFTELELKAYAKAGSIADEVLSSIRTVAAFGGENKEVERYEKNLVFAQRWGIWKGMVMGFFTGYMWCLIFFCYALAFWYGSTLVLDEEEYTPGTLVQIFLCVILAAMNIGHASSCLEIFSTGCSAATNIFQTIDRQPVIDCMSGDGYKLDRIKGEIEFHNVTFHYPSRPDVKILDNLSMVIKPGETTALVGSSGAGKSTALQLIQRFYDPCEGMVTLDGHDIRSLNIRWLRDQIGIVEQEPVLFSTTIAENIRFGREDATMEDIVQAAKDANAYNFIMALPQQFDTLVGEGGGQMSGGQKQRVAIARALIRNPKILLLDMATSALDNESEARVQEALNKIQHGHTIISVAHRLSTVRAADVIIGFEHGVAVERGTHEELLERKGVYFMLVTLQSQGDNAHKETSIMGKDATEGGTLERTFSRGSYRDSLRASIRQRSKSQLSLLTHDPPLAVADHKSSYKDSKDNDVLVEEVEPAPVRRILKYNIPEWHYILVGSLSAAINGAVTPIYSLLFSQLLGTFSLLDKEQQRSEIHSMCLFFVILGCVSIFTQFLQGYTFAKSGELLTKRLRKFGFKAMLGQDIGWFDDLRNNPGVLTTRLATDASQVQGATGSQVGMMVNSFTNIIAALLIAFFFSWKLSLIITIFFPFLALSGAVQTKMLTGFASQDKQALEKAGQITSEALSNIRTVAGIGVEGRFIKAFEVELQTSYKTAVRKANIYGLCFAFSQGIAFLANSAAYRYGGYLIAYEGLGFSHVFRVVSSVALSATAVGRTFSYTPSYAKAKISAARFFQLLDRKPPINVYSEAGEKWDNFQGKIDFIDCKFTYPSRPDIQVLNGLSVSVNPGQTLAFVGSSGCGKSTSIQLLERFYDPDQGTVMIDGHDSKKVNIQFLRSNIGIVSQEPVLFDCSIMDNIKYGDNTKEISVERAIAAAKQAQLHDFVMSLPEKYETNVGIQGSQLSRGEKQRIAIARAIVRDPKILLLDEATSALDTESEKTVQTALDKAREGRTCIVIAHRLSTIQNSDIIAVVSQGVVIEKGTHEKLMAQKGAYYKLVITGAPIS
Briefly: TP_TRANSPORTER: inhibition of Taurocholate uptake (Taurocholate: 1 uM) in canalicular membrane vesicles from SD rat. It is filed as functional, cell membranes, Sprague-Dawley, Canalicular membrane vesicle.

Data set [2] addresses T1, Bile salt export pump. The data set can be described thus: TP_TRANSPORTER: inhibition of Taurocholate uptake (Taurocholate: 1 uM) in membrane vesicles isolated from Bsep-expressing Sf9 cells. Format: functional, cell membranes, Membrane vesicle.
Substrate in data set [3]: [H][C@]12CC[C@]3([H])[C@]([H])(CC[C@]4(C)C([C@H](C)CCC(=O)NCCS(=O)(=O)O)CC[C@@]34[H])[C@@]1(C)CC[C@@H](OS(=O)(=O)O)C2
The data set can be described thus: TP_TRANSPORTER: uptake in membrane vesicles from Mrp2-expressing Sf9 cells. Format: functional, cell membranes, Membrane vesicle.

Substrate in data set [4]: C[C@H](CCC(=O)NCCS(=O)(=O)O)C1CC[C@H]2[C@@H]3[C@H](O)C[C@@H]4C[C@H](OS(=O)(=O)O)CC[C@]4(C)[C@H]3CC[C@]12C
The data set can be described thus: (§1) TP_TRANSPORTER: uptake in canalicular membrane vesicles from SD rat. Format: functional, cell membranes, Srague-Dawley, Liver, Canalicular membrane vesicle.

Substrate in data set [5]: [H][C@]12CC[C@]3([H])[C@]([H])(CC[C@]4(C)C([C@H](C)CCC(=O)NCCS(=O)(=O)O)CC[C@@]34[H])[C@@]1(C)CC[C@@H](OS(=O)(=O)O)C2
The data set is described as §1. Format: functional, cell membranes, Srague-Dawley, Liver, Canalicular membrane vesicle.

Where a name gives a salt, the structure may show the parent alone.

Turning to `C[C@H](CCC(=O)NCCS(=O)(=O)O)C1CC[C@H]2[C@@H]3CC[C@@H]4C[C@H](OS(=O)(=O)O)CC[C@]4(C)[C@H]3CC[C@]12C` (some centres not stated), the IC50 (commonly the concentration that gives 50% inhibition) at Bile salt export pump [1] came to 1.2 µM; at Bile salt export pump [2], 61.9 µM.

For the molecule `C[C@H](CCC(=O)NCCS(=O)(=O)O)C1CC[C@H]2[C@@H]3[C@H](O)C[C@@H]4C[C@H](OS(=O)(=O)O)CC[C@]4(C)[C@H]3CC[C@]12C` (some centres not stated) [TAUROCHENODEOXYCHOLATE SULFATE], the IC50 on Bile salt export pump [1] amounted to 4.6 µM; on Bile salt export pump [2] it was 67.9 µM.

B1: ATP-binding cassette sub-family C member 2 (Rattus norvegicus) (protein)
chain: MDKFCNSTFWDLSLLESPEADLPLCFEQTVLVWIPLGFLWLLAPWQLYSVYRSRTKRSSITKFYLAKQVFVVFLLILAAIDLSLALTEDTGQATVPPVRYTNPILYLCTWLLVLAVQHSRQWCVRKNSWFLSLFWILSVLCGVFQFQTLIRALLKDSKSNMAYSYLFFVSYGFQIVLLILTAFSGPSDSTQTPSVTASFLSSITFSWYDRTVLKGYKHPLTLEDVWDIDEGFKTRSVTSKFEAAMTKDLQKARQAFQRRLQKSQRKPEATLHGLNKKQSQSQDVLVLEEAKKKSEKTTKDYPKSWLIKSLFKTFHVVILKSFILKLIHDLLVFLNPQLLKLLIGFVKSSNSYVWFGYICAILMFAVTLIQSFCLQSYFQHCFVLGMCVRTTVMSSIYKKALTLSNLARKQYTIGETVNLMSVDSQKLMDATNYMQLVWSSVIQITLSIFFLWRELGPSILAGVGVMVLLIPVNGVLATKIRNIQVQNMKNKDKRLKIMNEILSGIKILKYFAWEPSFQEQVQGIRKKELKNLLRFGQLQSLLIFILQITPILVSVVTFSVYVLVDSANVLNAEKAFTSITLFNILRFPLSMLPMVTSSILQASVSVDRLERYLGGDDLDTSAIRRVSNFDKAVKFSEASFTWDPDLEATIQDVNLDIKPGQLVAVVGTVGSGKSSLVSAMLGEMENVHGHITIQGSTAYVPQQSWIQNGTIKDNILFGSEYNEKKYQQVLKACALLPDLEILPGGDMAEIGEKGINLSGGQKQRVSLARAAYQDADIYILDDPLSAVDAHVGKHIFNKVVGPNGLLAGKTRIFVTHGIHFLPQVDEIVVLGKGTILEKGSYRDLLDKKGVFARNWKTFMKHSGPEGEATVNNDSEAEDDDDGLIPTMEEIPEDAASLAMRRENSLRRTLSRSSRSSSRRGKSLKNSLKIKNVNVLKEKEKEVEGQKLIKKEFVETGKVKFSIYLKYLQAVGWWSILFIILFYGLNNVAFIGSNLWLSAWTSDSDNLNGTNNSSSHRDMRIGVFGALGLAQGICLLISTLWSIYACRNASKALHGQLLTNILRAPMRFFDTTPTGRIVNRFSGDISTVDDLLPQTLRSWMMCFFGIAGTLVMICMATPVFAIIIIPLSILYISVQVFYVATSRQLRRLDSVTKSPIYSHFSETVTGLPIIRAFEHQQRFLAWNEKQIDINQKCVFSWITSNRWLAIRLELVGNLVVFCSALLLVIYRKTLTGDVVGFVLSNALNITQTLNWLVRMTSEAETNIVAVERISEYINVENEAPWVTDKRPPADWPRHGEIQFNNYQVRYRPELDLVLKGITCNIKSGEKVGVVGRTGAGKSSLTNCLFRILESAGGQIIIDGIDVASIGLHDLRERLTIIPQDPILFSGSLRMNLDPFNKYSDEEVWRALELAHLRSFVSGLQLGLLSEVTEGGDNLSIGQRQLLCLGRAVLRKSKILVLDEATAAVDLETDSLIQTTIRKEFSQCTVITIAHRLHTIMDSDKIMVLDNGKIVEYGSPEELLSNRGSFYLMAKEAGIENVNHTEL
In the case of B1, the Km – broadly, the concentration of substrate that gives half-maximal velocity – in data set [3] came to 3.9 µM; in data set [4] it was 8.8 µM; in data set [5], 1.5 µM.
